Laboratory results reported in the NIST ThermoML archive (doi:10.1016/j.jct.2016.09.030).
Numbers after ± are expanded uncertainties.

Assay: xn = mol fraction of the nth substance listed
Details: 100 kPa, Liquid; for viscosity: Concentric cylinders viscometry; for mass density: Vibrating tube method

CCCCCCCC(=O)OCC [ethyl octanoate] + CC(C)CO
Details	mass density, 308.15 K [kg/m3]	mass density, 313.15 K [kg/m3]	mass density, 318.15 K [kg/m3]	mass density, 323.15 K [kg/m3]	viscosity, 308.15 K [mPa·s]	viscosity, 313.15 K [mPa·s]	viscosity, 318.15 K [mPa·s]	viscosity, 323.15 K [mPa·s]
x1 = 0.1001	801.68 ± 1.6	797.55 ± 1.6	793.38 ± 1.6	789.15 ± 1.6	1.854 ± 0.016	1.642 ± 0.015	1.453 ± 0.013	1.308 ± 0.012
x1 = 0.1999	811.24 ± 1.6	807.02 ± 1.6	802.76 ± 1.6	798.46 ± 1.6	1.554 ± 0.014	1.399 ± 0.013	1.254 ± 0.012	1.144 ± 0.011
x1 = 0.3	819.16 ± 1.6	814.88 ± 1.6	810.56 ± 1.6	806.21 ± 1.6	1.389 ± 0.013	1.264 ± 0.013	1.144 ± 0.011	1.052 ± 0.011
x1 = 0.4	826.03 ± 1.6	821.71 ± 1.6	817.36 ± 1.6	812.99 ± 1.6	1.307 ± 0.013	1.196 ± 0.012	1.089 ± 0.011	1.006 ± 0.011
x1 = 0.5	832 ± 1.6	827.66 ± 1.6	823.29 ± 1.6	818.9 ± 1.6	1.246 ± 0.013	1.148 ± 0.012	1.05 ± 0.011	0.975 ± 0.011
x1 = 0.5999	837.24 ± 1.6	832.89 ± 1.6	828.51 ± 1.6	824.13 ± 1.6	1.21 ± 0.014	1.119 ± 0.013	1.027 ± 0.012	0.9556 ± 0.011
x1 = 0.6999	841.91 ± 1.6	837.56 ± 1.6	833.19 ± 1.6	828.81 ± 1.6	1.186 ± 0.014	1.1 ± 0.013	1.013 ± 0.012	0.9463 ± 0.011
x1 = 0.7999	846.14 ± 1.7	841.8 ± 1.7	837.45 ± 1.7	833.08 ± 1.7	1.179 ± 0.015	1.096 ± 0.014	1.012 ± 0.013	0.9462 ± 0.012
x1 = 0.9	850.03 ± 1.7	845.7 ± 1.7	841.37 ± 1.7	837.02 ± 1.7	1.184 ± 0.015	1.103 ± 0.014	1.02 ± 0.013	0.9546 ± 0.013
x1 = 1	853.68 ± 1.7	849.37 ± 1.7	845.06 ± 1.7	840.74 ± 1.7	1.2 ± 0.016	1.118 ± 0.015	1.035 ± 0.014	0.9708 ± 0.013
